The text below walks through data of patent US12643884B2, “1-(2-(4-cyclopropyl-1H-1,2,3-triazol-1-yl)acetyl)-4-hydroxypyrrolidine-2-carboxa|mide derivatives as VHL inhibitors for the treatment of anemia” (Genentech, Inc., priority 2020, dated 2026).

pEC50, pIC50: −log10 of the molar value.

One data set concerns the target T1, VHL (Homo sapiens, UniProt P40337).
T1 construct: expressed in transfected cells
Briefly: VHL nanoBRET (+Digitonin). It counts as cell-based. (Bioluminescence resonance energy transfer reports proximity on the nanometre scale.)

Data set [1] deals with T2, NanoLuc VHL fusion protein stably expressed in HEK 293 cells (Homo sapiens, UniProt P40337).
T2 construct: expressed in transfected cells
Briefly: VHL HEK-293 BRET Assay (VHL NanoBRET Target Engagement Assay). It counts as cell-based. As to conditions: for pIC50: HEK293 cells, nanoBRET, geometric mean where more than one measurement, read-out: VHL binding in cells (HEK293 nanoBRET); for Ratio cell permeability shift: ratio of nanoBRET in cells to nanoBRET +Digitonin. The procedure: The VHL NanoBRET™ Target Engagement Assay analyzes the apparent affinity of test compounds for VHL in cells by competitive displacement of a VHL NanoBRET™ tracer reversibly bound to a NanoLuc® VHL fusion protein stably expressed in the cells.
Test compounds were transferred to the assay plate (384 Well White Non-Binding Corning Assay Plates (Corning-3574)) using an Echo 555 Liquid Handler (Labcyte) in 2.5 nL increments and, as appropriate, intermediate stock concentrations of compounds, in order to prepare a titration series. 50 nL of control compound (10 mM; parental unlabeled VHL antagonist; see structure below) and 50 nL of DMSO (negative control) were dispensed into the appropriate control wells. DMSO was backfilled to a final volume of 50 nL as required. 50 nl per well of 1 mM VHL NanoBRET™ Tracer in DMSO (NanoBRET™ Tracer-PEG2-590 (see structure below)) was transferred into each well using an Echo 555 (ultimately yielding a final concentration of 1 uM). HEK 293 RT VHL-NanoLuc® stable cells were cultured in DMEM High Glucose with Pyruvate, 10% fetal bovine serum, 2 mg/mL of Geneticin Selective Antibiotic (50 mg/ml) and 2 mM HEPES (1 M). Cells were seeded in Opti-MEM (Life Technologies-11058-021), 1.7×10^5 cells/mL, 40 μl per well into the assay plate, centrifuged at 500 rpm for 30 seconds and incubated for 2 hours. Max Signal control wells consisted of DMSO only treated wells. Minimum Signal control wells contained of 10 uM parental unlabeled VHL antagonist (control compound—see structure below). 3× Complete Substrate plus Inhibitor Solution was prepared in Opti-MEM (consists of a 1:166 dilution of NanoBRET™ Nano-Glo® Substrate plus a 1:500 dilution of Extracellular NanoLuc® Inhibitor in Opti-MEM), and 20 ul was dispensed into each well of the 384-well plate and centrifuged at 1000 rpm for 1 minute, then incubated for 2 minutes at room temperature. Background Signal control wells were prepared without tracer for background correction steps.
Plates were read using a PerkinElmer Envision Reader (model 2104-0020) equipped with Luminescence option (Mirror: BRET2 Enh (PE Barcode 659), Emission Filter: Omega 610LP (Barcode 504), 2nd Emission Filter: Umbelliferone 460 (Barcode 207), Measurement height: 6.5 mm, Measurement time: 1 s). The raw BRET ratio values were calculated by dividing the acceptor emission value (610 nm) by the donor emission value (460 nm) for each sample. To correct for background, the BRET ratio in the absence of tracer (average of no-tracer control samples) was subtracted from the BRET ratio of each sample. Raw BRET units were converted to milliBRET units (mBU) by multiplying each raw BRET value by 1,000. The normalized NanoBRET™ signal was calculated relative to the Max Signal control wells (DMSO treated control wells) and the Minimum Signal control wells. Percentage inhibition was calculated relative to the Minimum Signal control and Maximum Signal control wells. IC50 values were derived by four parameter curve fitting using the Robust method.

T2 sequence (P40337 whole entry, the tested form may be a part): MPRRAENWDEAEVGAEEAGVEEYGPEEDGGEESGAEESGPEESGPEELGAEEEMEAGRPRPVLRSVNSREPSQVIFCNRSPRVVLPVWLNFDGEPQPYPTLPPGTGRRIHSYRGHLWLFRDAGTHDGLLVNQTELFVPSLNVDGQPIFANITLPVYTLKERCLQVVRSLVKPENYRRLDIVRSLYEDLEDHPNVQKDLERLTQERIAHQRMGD
T2 sequence (Q15370 whole entry partner, the tested form may be a part): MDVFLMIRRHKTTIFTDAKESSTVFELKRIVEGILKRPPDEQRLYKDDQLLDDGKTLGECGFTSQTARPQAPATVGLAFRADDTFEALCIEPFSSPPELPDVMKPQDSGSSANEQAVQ
T2 sequence (Q15369 whole entry partner, the tested form may be a part): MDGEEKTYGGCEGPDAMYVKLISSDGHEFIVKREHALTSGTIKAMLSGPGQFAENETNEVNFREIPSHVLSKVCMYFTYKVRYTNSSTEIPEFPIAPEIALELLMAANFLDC
T1 sequence (P40337 whole entry): as the sequence (P40337 whole entry, the tested form may be a part) above
T1 sequence (Q15370 whole entry partner): as the sequence (Q15370 whole entry partner, the tested form may be a part) above
T1 sequence (Q15369 whole entry partner): as the sequence (Q15369 whole entry partner, the tested form may be a part) above

One may read the pEC50 as the negative decadic logarithm of the EC50, by convention in mol/L. Low values mean a large EC50, high ones a small EC50. The compound `CNC(=O)[C@@H]1C[C@@H](O)CN1C(=O)[C@H](C(C)C)n1cc(-c2ccc[nH]2)nn1` (mixture of isomers) [Final product from Example S29, (2S, 4R)-4-hydroxy-N-methyl-1-[rac-(2S)-3-methyl-2-[4-(1H-pyrrol-2-yl)triazol-1-yl]butanoyl]pyrrolidine-2-carboxamide] gave a pEC50 at VHL of 5.68. In data set [1], the pIC50 is 5.58 and the “Ratio cell permeability shift” value worked out at 1.26.
The corresponding values for `CNC(=O)[C@@H]1C[C@@H](O)CN1C(=O)[C@H](C(C)C)n1cc(-c2nccs2)nn1` (mixture of isomers) [Final product from Example S31, (2S, 4R)-4-hydroxy-N-methyl-1-[rac-(2S)-3-methyl-2-(4-thiazol-2-yltriazol-1-yl)butanoyl]pyrrolidine-2-carboxamide] are 5.92, 5.96 and 0.92.
In turn, `CNC(=O)[C@@H]1C[C@@H](O)CN1C(=O)[C@H](C1CCOCC1)n1cc(C2CC2)nn1` (single isomer, unassigned) [Final product from Example S6] showed a negative logarithm of the EC50 (pEC50) at VHL of 5.57. Moreover, in data set [1], the pIC50 is 5.09 and the “Ratio cell permeability shift” value amounted to 3.00.
On the same counts, the results for `CNC(=O)[C@@H]1C[C@@H](O)CN1C(=O)[C@H](C1CCCCC1)n1cc(-c2ccco2)nn1` (single isomer, unassigned) [Final product from Example S23] are 6.33, 6.49 and 0.68.
On the same counts, the results for `CNC(=O)[C@@H]1C[C@@H](O)CN1C(=O)[C@H](C(C)C)n1nnc2ccccc21` (single isomer, unassigned) [Final product from Example S24] are 5.55, 5.67 and 0.76.
At VHL, `CNC(=O)[C@@H]1C[C@@H](O)CN1C(=O)[C@H](C(C)C)n1nnc2c(OC)cccc21` (single isomer, unassigned) [Final product from Example S25] had a pEC50 of 5.42. In data set [1], the pIC50 was 5.59 and the “Ratio cell permeability shift” value amounted to 0.68.
The corresponding values for `CNC(=O)[C@@H]1C[C@@H](O)CN1C(=O)[C@H](C(C)C)n1nnc2cc(F)c(F)cc21` (single isomer, unassigned) [Final product from Example S26] are 5.70, 5.99 and 0.51.
On the same counts, the results for `CNC(=O)[C@@H]1C[C@@H](O)CN1C(=O)[C@H](C(C)C)n1cc(-c2ncco2)nn1` (single isomer, unassigned) [Final product from Example S30] are 6.01, 6.04 and 0.95.
Consider `CNC(=O)[C@@H]1C[C@@H](O)CN1C(=O)[C@H](C(C)C)n1cc(-c2cncs2)nn1` (single isomer, unassigned) [Final product from Example S33], for which the pEC50 at VHL is 5.95. In addition, in data set [1], the pIC50 was 6.05 and the “Ratio cell permeability shift” value is 0.80.
Turning to `CNC(=O)[C@@H]1C[C@@H](O)CN1C(=O)[C@H](C(C)C)n1cc(C2CC2)nn1` (single isomer, unassigned) [Isomer A from Example S11], the pEC50 at VHL was 5.51. Besides, in data set [1], the pIC50 is 5.52 and the “Ratio cell permeability shift” value came to 0.97.
Regarding `CNC(=O)[C@@H]1C[C@@H](O)CN1C(=O)[C@@H](C(C)C)n1cc(C2CC2)nn1` (single isomer, unassigned) [Isomer B from Example S11], on VHL, the pEC50 is under 4.00. In data set [1], the pIC50 was under 4.00.
On to `CNC(=O)[C@@H]1C[C@@H](O)CN1C(=O)[C@@H](n1cc(C2CC2)nn1)C(C)(C)C` [Final product from Example S2, (2S,4R)-1-((S)-2-(4-cyclopropyl-1H-1,2,3-triazol-1-yl)-3,3-dimethylbutanoyl)-4-hydroxy-N-methylpyrrolidine-2-carboxamide], for which the pEC50 at VHL was 5.59. In data set [1], the pIC50 was 5.52 and the “Ratio cell permeability shift” value amounted to 1.17.
On the same counts, the results for `CNC(=O)[C@@H]1C[C@@H](O)CN1C(=O)[C@H](C1CCCCC1)n1cc(C2CC2)nn1` [Final product from Example S3, (2S,4R)-1-((S)-2-cyclohexyl-2-(4-cyclopropyl-1H-1,2,3-triazol-1-yl)acetyl)-4-hydroxy-N-methylpyrrolidine-2-carboxamide] are 5.78, 5.79 and 0.96.
The corresponding values for `CNC(=O)[C@@H]1C[C@@H](O)CN1C(=O)[C@@H](n1ccnn1)C(C)(C)C` [Final product from Example S4, (2S,4R)-1-((S)-3,3-dimethyl-2-(1H-1,2,3-triazol-1-yl)butanoyl)-4-hydroxy-N-methylpyrrolidine-2-carboxamide] are 4.92, 4.82 and 1.26.
The corresponding values for `CNC(=O)[C@@H]1C[C@@H](O)CN1C(=O)C(n1cc(C2CC2)nn1)C1(C)CCCCC1` (stereo partly drawn) [Final product from Example S5, (2S,4R)-1-[2-(4-cyclopropyltriazol-1-yl)-2-(1-methylcyclohexyl)acetyl]-4-hydroxy-N-methyl-pyrrolidine-2-carboxamide] are 5.07, 4.98 and 1.24.
On VHL, `CNC(=O)[C@@H]1C[C@@H](O)CN1C(=O)[C@H](C1CCNCC1)n1cc(C2CC2)nn1` [Final product from Example S7, (2S,4R)-1-((S)-2-(4-cyclopropyl-1H-1,2,3-triazol-1-yl)-2-(piperidin-4-yl)acetyl)-4-hydroxy-N-methylpyrrolidine-2-carboxamide] showed a pEC50 of 5.05. Besides, the “Ratio cell permeability shift” value in data set [1] is over 10.00.
With `CNC(=O)[C@@H]1C[C@@H](O)CN1C(=O)[C@H](C1CCN(C)CC1)n1cc(C2CC2)nn1` [Final product from Example S8, (2S,4R)-1-((S)-2-(4-cyclopropyl-1H-1,2,3-triazol-1-yl)-2-(1-methylpiperidin-4-yl)acetyl)-4-hydroxy-N-methylpyrrolidine-2-carboxamide], the pEC50 at VHL is 4.97. In data set [1], the “Ratio cell permeability shift” value was over 10.00.
For `CNC(=O)[C@@H]1C[C@@H](O)CN1C(=O)[C@H](C1CCN(C(C)=O)CC1)n1cc(C2CC2)nn1` [Final product from Example S9, (2S,4R)-1-((S)-2-(1-acetylpiperidin-4-yl)-2-(4-cyclopropyl-1H-1,2,3-triazol-1-yl)acetyl)-4-hydroxy-N-methylpyrrolidine-2-carboxamide], on VHL, the pEC50 was 5.57. Also, in data set [1], the pIC50 is 4.16 and the “Ratio cell permeability shift” value is given as 26.03.
The corresponding values for `CNC(=O)[C@@H]1C[C@@H](O)CN1C(=O)[C@H](C1CCN(S(C)(=O)=O)CC1)n1cc(C2CC2)nn1` [Final product from Example S10, (2S,4R)-1-((S)-2-(4-cyclopropyl-1H-1,2,3-triazol-1-yl)-2-(1-(methylsulfonyl)piperidin-4-yl)acetyl)-4-hydroxy-N-methylpyrrolidine-2-carboxamide] are 5.68, 5.00 and 4.83.
